{
  "source": "ChEMBL document CHEMBL1671823",
  "about": "“Novel Cyclic Phosphinic Acids as GABAC ρ Receptor Antagonists: Design, Synthesis, and Pharmacology” (ACS Med Chem Lett, 2011)",
  "key": {"[1]": {"target": "T1, Gamma-aminobutyric acid receptor subunit rho-1 (Homo sapiens, UniProt P24046)", "T1 sequence (P24046 whole entry)": "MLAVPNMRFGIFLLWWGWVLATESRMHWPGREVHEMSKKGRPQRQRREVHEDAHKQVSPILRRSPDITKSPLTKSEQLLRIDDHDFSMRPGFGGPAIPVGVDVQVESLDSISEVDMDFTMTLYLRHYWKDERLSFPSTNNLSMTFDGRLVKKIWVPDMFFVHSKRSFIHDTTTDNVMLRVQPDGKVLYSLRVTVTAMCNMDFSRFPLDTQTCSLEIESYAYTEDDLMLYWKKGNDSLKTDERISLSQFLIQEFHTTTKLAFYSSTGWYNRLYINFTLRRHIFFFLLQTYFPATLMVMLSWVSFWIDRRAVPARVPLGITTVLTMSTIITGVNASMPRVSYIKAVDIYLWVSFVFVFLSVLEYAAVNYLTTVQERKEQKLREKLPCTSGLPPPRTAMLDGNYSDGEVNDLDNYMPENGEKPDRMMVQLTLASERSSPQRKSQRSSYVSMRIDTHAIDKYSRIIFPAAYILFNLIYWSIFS", "experiment": "Antagonist activity at human recombinant GABAc rho-1 receptor expressed in Xenopus laevis oocytes assessed as inhibition of GABA-induced current by two electrode voltage clamp technique", "format": "functional, cell-based, Oocyte", "details": "for Kb: Oocyte"}, "GABA-B receptor": {"target": "GABA-B receptor (Homo sapiens, UniProt O75899+Q9UBS5)", "sequence (Q9UBS5 whole entry)": "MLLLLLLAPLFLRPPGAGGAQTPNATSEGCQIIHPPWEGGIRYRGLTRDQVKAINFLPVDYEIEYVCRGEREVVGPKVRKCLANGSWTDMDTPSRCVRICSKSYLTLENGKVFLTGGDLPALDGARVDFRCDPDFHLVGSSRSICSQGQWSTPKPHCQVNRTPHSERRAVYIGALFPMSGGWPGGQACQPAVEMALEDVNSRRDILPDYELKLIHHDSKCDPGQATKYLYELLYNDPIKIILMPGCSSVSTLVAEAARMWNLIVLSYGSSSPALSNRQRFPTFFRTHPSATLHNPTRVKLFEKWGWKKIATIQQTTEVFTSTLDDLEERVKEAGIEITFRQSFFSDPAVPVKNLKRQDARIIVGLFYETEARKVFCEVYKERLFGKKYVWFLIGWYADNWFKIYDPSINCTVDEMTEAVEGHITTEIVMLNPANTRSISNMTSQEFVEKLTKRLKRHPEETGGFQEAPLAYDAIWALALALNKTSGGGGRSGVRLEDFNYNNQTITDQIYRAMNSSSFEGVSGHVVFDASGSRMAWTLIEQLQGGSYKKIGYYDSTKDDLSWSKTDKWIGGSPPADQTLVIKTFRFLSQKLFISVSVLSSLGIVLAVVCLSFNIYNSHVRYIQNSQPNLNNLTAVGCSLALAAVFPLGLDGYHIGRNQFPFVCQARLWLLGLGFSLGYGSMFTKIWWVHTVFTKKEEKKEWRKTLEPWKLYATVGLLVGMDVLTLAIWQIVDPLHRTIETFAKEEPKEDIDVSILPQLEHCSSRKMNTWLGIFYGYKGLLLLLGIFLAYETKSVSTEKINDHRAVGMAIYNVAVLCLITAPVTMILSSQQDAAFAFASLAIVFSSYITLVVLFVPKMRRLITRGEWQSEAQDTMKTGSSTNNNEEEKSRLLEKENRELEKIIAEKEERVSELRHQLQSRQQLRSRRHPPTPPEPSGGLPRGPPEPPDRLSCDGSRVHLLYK", "sequence (O75899 whole entry)": "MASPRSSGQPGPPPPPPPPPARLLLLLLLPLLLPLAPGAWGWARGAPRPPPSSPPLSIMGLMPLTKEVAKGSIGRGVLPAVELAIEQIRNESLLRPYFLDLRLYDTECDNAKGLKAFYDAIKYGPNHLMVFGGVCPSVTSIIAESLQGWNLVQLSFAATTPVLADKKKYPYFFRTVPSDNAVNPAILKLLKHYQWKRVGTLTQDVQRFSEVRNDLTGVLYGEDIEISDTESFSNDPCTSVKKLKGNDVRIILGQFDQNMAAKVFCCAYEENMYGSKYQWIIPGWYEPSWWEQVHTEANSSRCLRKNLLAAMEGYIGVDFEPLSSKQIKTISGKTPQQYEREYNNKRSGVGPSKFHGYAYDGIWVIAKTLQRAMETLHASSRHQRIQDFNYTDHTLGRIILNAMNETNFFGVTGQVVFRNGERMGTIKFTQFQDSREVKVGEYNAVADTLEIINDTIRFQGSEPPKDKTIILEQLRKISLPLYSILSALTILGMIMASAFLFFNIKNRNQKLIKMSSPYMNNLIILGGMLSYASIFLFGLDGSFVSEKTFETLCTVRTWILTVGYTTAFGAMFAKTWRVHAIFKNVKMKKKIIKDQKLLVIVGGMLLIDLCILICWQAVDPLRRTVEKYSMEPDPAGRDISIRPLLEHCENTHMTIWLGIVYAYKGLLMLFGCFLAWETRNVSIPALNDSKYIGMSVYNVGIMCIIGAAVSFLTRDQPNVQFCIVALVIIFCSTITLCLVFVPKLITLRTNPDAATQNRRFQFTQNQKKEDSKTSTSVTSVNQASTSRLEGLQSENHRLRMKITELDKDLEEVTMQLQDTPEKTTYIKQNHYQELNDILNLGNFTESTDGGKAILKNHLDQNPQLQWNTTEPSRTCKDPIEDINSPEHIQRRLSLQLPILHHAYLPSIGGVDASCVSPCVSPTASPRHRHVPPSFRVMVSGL", "experiment": "Antagonist activity at human recombinant GABAb 1b/2 receptor expressed in Xenopus laevis oocytes co-expressing GIRK1/4 assessed as inhibition of GABA-induced current by two electrode voltage clamp technique", "format": "functional, cell-based, Oocyte"}, "[2]": {"target": "Gamma-aminobutyric acid receptor subunit rho-2 (Homo sapiens, UniProt P28476)", "sequence (P28476 whole entry)": "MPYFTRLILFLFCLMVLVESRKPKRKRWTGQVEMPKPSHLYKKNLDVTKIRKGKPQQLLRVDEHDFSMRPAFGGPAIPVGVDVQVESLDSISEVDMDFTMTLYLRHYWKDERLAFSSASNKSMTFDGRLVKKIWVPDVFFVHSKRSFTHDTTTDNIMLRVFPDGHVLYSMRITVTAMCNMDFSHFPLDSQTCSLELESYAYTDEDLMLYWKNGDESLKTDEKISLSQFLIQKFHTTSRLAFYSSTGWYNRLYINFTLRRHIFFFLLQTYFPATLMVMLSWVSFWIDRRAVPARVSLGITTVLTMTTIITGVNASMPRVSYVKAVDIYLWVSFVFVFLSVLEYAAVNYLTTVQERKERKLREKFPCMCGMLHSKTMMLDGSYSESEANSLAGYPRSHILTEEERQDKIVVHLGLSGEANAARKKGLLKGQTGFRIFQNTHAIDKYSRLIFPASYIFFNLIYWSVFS", "experiment": "Antagonist activity at human recombinant GABAc rho-2 receptor expressed in Xenopus laevis oocytes assessed as inhibition of GABA-induced current by two electrode voltage clamp technique", "format": "functional, cell-based, Oocyte"}, "[3]": {"target": "T1, Gamma-aminobutyric acid receptor subunit rho-1", "experiment": "Antagonist activity at human recombinant GABAc rho-1 receptor expressed in Xenopus laevis oocytes assessed as inhibition of GABA-induced current at 600 uM by two electrode voltage clamp technique", "format": "functional, cell-based", "details": "Oocyte"}, "[4]": {"target": "T2, GABA-A receptor; alpha-1/beta-2/gamma-2 (Homo sapiens) (UniProt P14867+P47870+P18507)", "experiment": "Antagonist activity at human recombinant GABAA alpha1beta2gamma2L receptor expressed in Xenopus laevis oocytes assessed as inhibition of GABA-induced current at 600 uM by two electrode voltage clamp technique", "format": "functional, cell-based", "details": "Oocyte"}, "[5]": {"target": "T2, GABA-A receptor; alpha-1/beta-2/gamma-2 (Homo sapiens)", "experiment": "Antagonist activity at human recombinant GABAA alpha1beta2gamma2L receptor expressed in Xenopus laevis oocytes assessed as inhibition of GABA-induced current at 100 uM by two electrode voltage clamp technique", "format": "functional, cell-based", "details": "Oocyte"}, "[6]": {"target": "T1, Gamma-aminobutyric acid receptor subunit rho-1", "experiment": "Antagonist activity at human recombinant GABAc rho-1 receptor expressed in Xenopus laevis oocytes assessed as inhibition of GABA-induced current at 100 uM by two electrode voltage clamp technique", "format": "functional, cell-based", "details": "Oocyte"}, "[7]": {"target": "T2, GABA-A receptor; alpha-1/beta-2/gamma-2 (Homo sapiens)", "experiment": "Antagonist activity at human recombinant GABAA alpha1beta2gamma2L receptor expressed in Xenopus laevis oocytes assessed as inhibition of GABA-induced current at 300 uM by two electrode voltage clamp technique", "format": "functional, cell-based", "details": "Oocyte"}, "[8]": {"target": "T3, GABA-B receptor (Homo sapiens) (UniProt Q9UBS5+O75899)", "experiment": "Antagonist activity at human recombinant GABAb 1b/2 receptor expressed in Xenopus laevis oocytes co-expressing GIRK1/4 assessed as inhibition of GABA-induced current at 300 uM by two electrode voltage clamp technique", "format": "functional, cell-based", "details": "Oocyte"}, "[9]": {"target": "T3, GABA-B receptor (Homo sapiens)", "experiment": "[…] activity at human recombinant GABAb 1b/2 receptor expressed in Xenopus laevis oocytes co-expressing GIRK1/4 assessed as inhibition of GABA-induced current at 10 uM by two electrode voltage clamp technique", "format": "functional, cell-based", "details": "Oocyte"}, "[10]": {"target": "T3, GABA-B receptor (Homo sapiens)", "experiment": "[…] activity at human recombinant GABAb 1b/2 receptor expressed in Xenopus laevis oocytes co-expressing GIRK1/4 assessed as inhibition of GABA-induced current at 600 uM by two electrode voltage clamp technique", "format": "functional, cell-based", "details": "Oocyte"}, "[11]": {"target": "T3, GABA-B receptor (Homo sapiens)", "experiment": "[…] activity at human recombinant GABAb 1b/2 receptor expressed in Xenopus laevis oocytes co-expressing GIRK1/4 assessed as inhibition of GABA-induced current by two electrode voltage clamp technique", "format": "functional, cell-based", "details": "Oocyte"}},
  "note": "The source made the active and inactive calls. The calls are words filed in the database; no cut-off is given here.",
  "data": [
    {"smiles": "CP(=O)(O)C1=CCNCC1", "values": [
      {"measurement": "IC50", "setting": "[1]", "result": 2.22, "unit": "µM"},
      {"measurement": "EC50", "setting": "GABA-B receptor", "result": 500, "unit": "µM"},
      {"measurement": "IC50", "setting": "[2]", "result": 22.1, "unit": "µM"},
      {"measurement": "Kb", "setting": "[2]; Oocyte", "result": 14.9, "unit": "µM"}
    ]},
    {"smiles": "NC1CCP(=O)(O)C1", "note": "(stereo not drawn)", "values": [
      {"measurement": "inhibition", "setting": "[3]", "result": "inactive"},
      {"measurement": "inhibition", "setting": "[4]", "result": "inactive"}
    ]},
    {"smiles": "O=C(O)C1CCP(=O)(O)C1", "note": "(stereo not drawn)", "values": [
      {"measurement": "inhibition", "setting": "[5]", "result": "inactive"},
      {"measurement": "inhibition", "setting": "[6]", "result": "inactive"}
    ]},
    {"smiles": "CCCCP(=O)(O)C1=CC[C@H](N)C1", "values": [
      {"measurement": "Kb", "setting": "[1]", "result": 2.1, "unit": "µM"},
      {"measurement": "inhibition", "setting": "[7]", "result": 24.2, "unit": "%"},
      {"measurement": "inhibition", "setting": "[8]", "result": 22.5, "unit": "%"}
    ]},
    {"smiles": "N=C(N)NC1CCP(=O)(O)C1", "note": "(stereo not drawn)", "values": [
      {"measurement": "IC50", "setting": "[1]", "result": 29.7, "unit": "µM"},
      {"measurement": "Kb", "setting": "[1]", "result": 10, "unit": "µM"},
      {"measurement": "inhibition", "setting": "[4]", "result": 29.2, "unit": "%"},
      {"measurement": "IC50", "setting": "[2]", "result": 51.3, "unit": "µM"}
    ]},
    {"smiles": "NCC1CCP(=O)(O)C1", "note": "(stereo not drawn)", "values": [
      {"measurement": "inhibition", "setting": "[9]", "result": "inactive"},
      {"measurement": "IC50", "setting": "[1]", "result": 19.9, "unit": "µM"},
      {"measurement": "inhibition", "setting": "[10]", "result": 45.2, "unit": "%"},
      {"measurement": "inhibition", "setting": "[4]", "result": "inactive"},
      {"measurement": "inhibition", "setting": "[11]", "result": "Dose-dependent effect"},
      {"measurement": "IC50", "setting": "[2]", "result": 57.1, "unit": "µM"}
    ]},
    {"smiles": "O=P1(O)CCC(CO)C1", "note": "(stereo not drawn)", "values": [
      {"measurement": "inhibition", "setting": "[5]", "result": "inactive"},
      {"measurement": "inhibition", "setting": "[6]", "result": "inactive"}
    ]}
  ]
}
